pIC50: −log10 of the molar value. Activity calls are given as the source filed them. The calls are words filed in the database; no cut-off is given here.
Experiments:
Salmonella typhimurium [1] = test: Antimicrobial activity against Salmonella Typhimurium ATCC 14028 assessed as inhibition of planktonic growth at 400 uM at 25 degC after 24 hrs; type: functional, organism-based; conditions: Salmonella enterica subsp. enterica serovar Typhimurium
Pseudomonas aeruginosa [2] = test: Antibiofilm activity in Pseudomonas aeruginosa assessed as inhibition of biofilm formation at 25 degC after 24 hrs; type: functional, organism-based
Salmonella typhimurium [3] = test: Antibiofilm activity in Salmonella Typhimurium ATCC 14028 assessed as inhibition of biofilm formation at 25 degC after 24 hrs; type: functional, organism-based, Salmonella enterica subsp. enterica serovar Typhimurium; conditions: Salmonella enterica, ATCC 14028, 24 h
Pseudomonas aeruginosa [4] = test: Antimicrobial activity against Pseudomonas aeruginosa assessed as inhibition of planktonic growth at 20 uM at 25 degC after 24 hrs; type: functional, organism-based
Pseudomonas aeruginosa [5] = test: Antimicrobial activity against Pseudomonas aeruginosa assessed as inhibition of planktonic growth at 40 uM at 25 degC after 24 hrs; type: functional, organism-based
Salmonella typhimurium [6] = test: Antimicrobial activity against Salmonella Typhimurium ATCC 14028 assessed as inhibition of planktonic growth at 20 uM at 25 degC after 24 hrs; type: functional, organism-based; conditions: Salmonella enterica subsp. enterica serovar Typhimurium
Salmonella typhimurium [7] = test: Antimicrobial activity against Salmonella Typhimurium ATCC 14028 assessed as inhibition of planktonic growth at 10 uM at 25 degC after 24 hrs; type: functional, organism-based; conditions: Salmonella enterica subsp. enterica serovar Typhimurium

Structure (SMILES) | inhibition (Salmonella typhimurium [1]) | pIC50 (Pseudomonas aeruginosa [2]) | pIC50 (Salmonella typhimurium [3]) | further results
CCCCCCCCCCCCCCNc1ncccn1 | inactive |  |  | 
CS(=O)(=O)c1ccc(-c2cnc(N)[nH]2)cc1 |  | < 3.10 | < 3.10 | 
O=[N+]([O-])c1ccc(-c2cn3cccnc3[n+]2C2CCCCC2)cc1.[O-][Cl+3]([O-])([O-])[O-] |  | 3.60 | 3.25 | 
CCCCCCCCCCCCCCn1c(-c2ccc(-c3ccccc3)cc2)cnc1N |  | < 3.40 | < 3.10 | 
CCCCn1c(-c2ccc([N+](=O)[O-])cc2)cnc1N |  | 3.43 | 3.94 | 
COc1ccc(-c2cnc(N)[nH]2)cc1 |  | 3.73 | 3.92 | 
CCCCCCCCn1c(-c2ccc(-c3ccc([N+](=O)[O-])cc3)cc2)cnc1N |  | < 3.10 | 3.93 | 
Nc1ncc(-c2ccc(-c3ccccc3)cc2)n1C1CCCCCCCCCCC1 |  | < 3.10 | < 3.10 | 
CCCCCCn1c(-c2ccccc2)cnc1N |  | 4.72 | 4.40 | inhibition (Pseudomonas aeruginosa [4]): inactive; inhibition (Pseudomonas aeruginosa [5]): inactive
c1cnc(NC2CCCCCC2)nc1 | inactive |  |  | 
c1cnc(NC2CC2)nc1 | inactive |  |  | 
Cn1c(-c2ccc(Cl)cc2)cnc1N |  | 3.95 | 3.97 | 
c1cnc(NCc2ccc3c(c2)OCO3)nc1 | inactive |  |  | 
CCCCCCn1c(-c2ccc(-c3ccccc3)cc2)cnc1N |  | 4.49 | 4.92 | inhibition (Salmonella typhimurium [6]): Active; inhibition (Salmonella typhimurium [7]): Active
CCCCCCCCNc1ncccn1 | inactive |  |  | 
O=[N+]([O-])c1ccc(-c2cn3cccnc3[n+]2Cc2ccccc2)cc1.[O-][Cl+3]([O-])([O-])[O-] |  | < 3.10 | 3.77 | 
CCn1c(-c2ccccc2)cnc1N |  | 4.68 | 3.69 | inhibition (Pseudomonas aeruginosa [4]): inactive; inhibition (Pseudomonas aeruginosa [5]): inactive
CC[n+]1c(-c2ccc([N+](=O)[O-])cc2)cn2cccnc21.[O-][Cl+3]([O-])([O-])[O-] |  | < 3.10 | < 3.10 | 
c1cnc(NC2CCCCC2)nc1 | inactive |  |  | 
CCn1c(-c2ccc(F)cc2)cnc1N |  | 4.17 | 3.54 | 
CCCCNc1ncccn1 | inactive |  |  | 

Structure (SMILES) | inhibition (Salmonella typhimurium [1]) | pIC50 (Pseudomonas aeruginosa [2]) | pIC50 (Salmonella typhimurium [3]) | further results
CCCCCCCNc1ncccn1 | inactive |  |  | 
CC(C)n1c(-c2ccc([N+](=O)[O-])cc2)cnc1N |  | < 3.10 | 3.44 | 
Cc1ccc(CNc2ncccn2)c(C)c1 | inactive |  |  | 
Cc1ccc(-c2cnc(N)n2C(C)C)cc1 |  | 3.62 | 3.69 | 
COc1ccc(-c2[nH]c(N)nc2-c2ccccc2)cc1 |  |  | 4.11 | 
CCCCn1c(-c2ccc(Br)cc2)cnc1N |  | 4.73 | 4.79 | 
COc1ccc(Cn2c(-c3ccccc3)cnc2N)cc1OC |  | 3.80 | 3.81 | 
Brc1ccccc1Nc1ncccn1 | inactive |  |  | 
C[n+]1c(-c2cccc([N+](=O)[O-])c2)cn2cccnc21.[O-][Cl+3]([O-])([O-])[O-] |  | < 3.10 | 3.37 | 
CCCCCCCCn1c(-c2ccc(-c3ccc(-c4ccccc4)cc3)cc2)cnc1N |  | < 3.10 | 3.07 | 
CCCCCCCCCCNc1ncccn1 | inactive |  |  | 
CCn1c(-c2ccc([N+](=O)[O-])cc2)cnc1N |  | 3.90 | 3.54 | 
Nc1ncc(-c2ccc(Cl)cc2)n1C1CCCCCCCCCCC1 |  | < 3.10 | 3.92 | 
Cc1cccc(Nc2ncccn2)c1 | inactive |  |  | 
Cc1ccc(-c2cnc(N)[nH]2)cc1 |  | 4.34 | 4.11 | 
COc1cccc(Nc2ncccn2)c1 | inactive |  |  | 
CCCCCCCCCNc1ncccn1 | inactive |  |  | 
Cn1c(-c2ccccc2)cnc1N |  | 4.02 | 3.37 | 
Nc1ncc(-c2ccc(Cl)cc2)n1Cc1ccccc1 |  | 4.83 | 4.55 | 
Nc1ncc(-c2ccc(-c3ccccc3)cc2)n1C1CCC1 |  | 4.61 | 4.58 | 
c1ccc(CNc2ncccn2)cc1 | inactive |  |  | 

Structure (SMILES) | inhibition (Salmonella typhimurium [1]) | pIC50 (Pseudomonas aeruginosa [2]) | pIC50 (Salmonella typhimurium [3]) | further results
Cc1ccc(-c2cnc(N)n2C)cc1 |  | 4.50 | 4.21 | 
Nc1ncc(-c2ccc(F)cc2)n1Cc1ccccc1 |  | 4.49 | 4.43 | 
CCCNc1ncccn1 | inactive |  |  | 
CCCCCCCCCCCCCNc1ncccn1 | inactive |  |  | 
N#Cc1ccc(-c2cnc(N)[nH]2)cc1 |  |  | 3.50 | 
c1cnc(NC2CCCCCCCCCCC2)nc1 | inactive |  |  | 
Cn1c(-c2ccc(C#N)cc2)cnc1N |  | 3.48 | < 3.40 | 
CC(C)(C)[Si](C)(C)Oc1ccc(CNc2ncccn2)cc1 | inactive |  |  | 
c1cnc(NC2CCC2)nc1 | inactive |  |  | 
CC(C)C[n+]1c(-c2ccc([N+](=O)[O-])cc2)cn2cccnc21.[O-][Cl+3]([O-])([O-])[O-] |  | < 3.10 | 3.39 | 
COc1ccc(CCNc2ncccn2)cc1 | inactive |  |  | 
CN(C)c1ncccn1 | inactive |  |  | 
Nc1ncc(-c2ccccc2)n1Cc1ccccc1 |  | 4.58 | 4.26 | 
Nc1ncc(-c2ccc(Br)cc2)n1Cc1ccccc1 |  | 4.24 | 4.13 | 
Nc1nc(-c2ccccc2)c(-c2ccc(Cl)cc2)[nH]1 |  |  | 4.33 | 
CCNc1ncccn1 | inactive |  |  | 
Cn1c(-c2ccc([N+](=O)[O-])cc2)cnc1N |  | 4.16 | 3.79 | 
c1cnc(NC2CCCC2)nc1 | inactive |  |  | 
CCCCCCCCCCCCNc1ncccn1 | inactive |  |  | 
CCCCCCCCn1c(-c2ccc(OC)cc2)cnc1N |  | 5.92 | 5.07 | inhibition (Pseudomonas aeruginosa [4]): inactive; inhibition (Salmonella typhimurium [6]): Active; inhibition (Salmonella typhimurium [7]): inactive
c1ccc(Nc2ncccn2)cc1 | inactive |  |  | 

Structure (SMILES) | inhibition (Salmonella typhimurium [1]) | pIC50 (Pseudomonas aeruginosa [2]) | pIC50 (Salmonella typhimurium [3]) | further results
COc1ccc(CCn2c(-c3ccccc3)cnc2N)cc1OC |  | 4.28 | 3.73 | 
Nc1ncc(-c2ccccc2)n1C1CCCC1 |  | 4.90 | 4.15 | inhibition (Pseudomonas aeruginosa [4]): inactive
Nc1nc(-c2ccc(Cl)cc2)c(-c2cc(F)cc(F)c2)[nH]1 |  |  | 4.14 | 
c1cnc(NC2CCCCCCC2)nc1 | inactive |  |  | 
CCCCCCCCCCCNc1ncccn1 | inactive |  |  | 
CCCCn1c(-c2ccc(F)cc2)cnc1N |  | 4.25 | 4.25 | 
CCCCCCNc1ncccn1 | inactive |  |  | 
CCCCCNc1ncccn1 | inactive |  |  | 
C#CCN(C)c1ncccn1 | inactive |  |  | 
Cc1ccc(CNc2ncccn2)cc1 | inactive |  |  | 
Nc1ncc(-c2ccccc2)n1C1CC1 |  | 4.46 | 4.05 | 
CCn1c(-c2ccc(Br)cc2)cnc1N |  | 4.22 | 3.90 | 
C=CCNc1ncccn1 | inactive |  |  | 
CCCCCn1c(-c2ccc(-c3ccccc3)cc2)cnc1N |  | 4.13 | 5.04 | 
CC(C)[n+]1c(-c2ccc([N+](=O)[O-])cc2)cn2cccnc21.[O-][Cl+3]([O-])([O-])[O-] |  | < 3.10 | < 3.10 | 
CCCCCCCC[n+]1c(-c2ccc(S(C)(=O)=O)cc2)cn2cccnc21.[O-][Cl+3]([O-])([O-])[O-] |  | 4.30 | 4.09 | 
Cc1ccc(-c2nc(N)n(-c3ccccc3)c2-c2ccc(Cl)cc2)cc1 |  | < 3.10 | < 3.40 | 
CCCC[n+]1c(-c2ccc([N+](=O)[O-])cc2)cn2cccnc21.[O-][Cl+3]([O-])([O-])[O-] |  | < 3.10 | < 3.40 | 
Nc1ncc(-c2ccc(Cl)cc2)n1C1CC1 |  | 4.89 | 4.26 | inhibition (Pseudomonas aeruginosa [4]): inactive
Nc1ncc(-c2ccccc2)n1Cc1ccc2c(c1)OCO2 |  | 3.98 | 4.01 | 
CCCCCCCCCCCn1c(-c2ccc(-c3ccccc3)cc2)cnc1N |  | < 3.40 | 4.22 | 

— ChEMBL document CHEMBL1649413, “Structure-activity relationship of 4(5)-aryl-2-amino-1H-imidazoles, N1-substituted 2-aminoimidazoles and imidazo[1,2-a]pyrimidinium salts as inhibitors of biofilm formation by Salmonella typhimurium and Pseudomonas aeruginosa” (J Med Chem, 2011)
